Assay results taken from PubChem BioAssay (NCI).
Values joined by “and” are separate entries in the source; they are usually repeats but may differ in a detail not shown here. Equal entries are not always repeated.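 These data come from cells grown in 96-well plates and exposed to compound for 48 hours at five concentrations. GI50 = concentration required for 50% inhibition of growth. TGI is the concentration that stops growth completely.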

How the values were obtained:
Assay in all cases: growth of human tumour cells (NCI), 48 h
[1] = tested on: RPMI-8226 leukemia
[2] = tested on: SF-295 CNS
[3] = tested on: HT29 colon
[4] = tested on: M14 melanoma
[5] = tested on: HS 578T breast
[6] = tested on: SK-MEL-5 melanoma
[7] = tested on: SNB-75 CNS
[8] = tested on: MCF7 breast
[9] = tested on: BT-549 breast
[10] = tested on: HCC-2998 colon

SMILES	TGI [1]	TGI [2]	TGI [3]	TGI [4]	TGI [5]	TGI [6]	TGI [7]	TGI [8]	TGI [9]	TGI [10]	GI50 [1]	GI50 [2]	GI50 [3]	GI50 [4]	GI50 [5]	GI50 [6]	GI50 [7]	GI50 [8]	GI50 [9]	GI50 [10]
COC(=O)c1ccc([N+](=O)[O-])c(O)c1	> 100 µM	> 100 µM	> 100 µM	> 100 µM	> 100 µM	> 100 µM	> 100 µM	> 100 µM	> 100 µM	> 100 µM										
CN(C)CCCNc1nccc(-c2c(-c3ccc(F)cc3)nn3cc(C(F)(F)F)ccc23)n1	> 25 µM	> 17.2 µM	> 23.9 µM	9.06 µM	> 25 µM	6.75 µM	> 16.9 µM	> 18.2 µM	> 25 µM	15 µM	10200 nM	6.91 µM	6580 nM	4.37 µM	7.7 µM	3.48 µM	5970 nM	7.77 µM	> 23.4 µM	4540 nM
CNC(C)C(=O)N[C@H](C(=O)N1CCC[C@@H]1CN(CCc1ccccc1)C(=O)C(F)(F)F)[C@H](C)OCC#CC#CCO[C@H](C)[C@H](NC(=O)[C@H](C)NC)C(=O)N1CCC[C@H]1CN(CCc1ccccc1)C(=O)C(F)(F)F (stereo partly specified)	3.52 µM	2.84 µM	1.53 µM	3.41 µM	3.65 µM	2.62 µM	0.764 µM	1.76 µM	1.69 µM	3.04 µM	1530 nM	1.31 µM	465 nM	1.79 µM	1.55 µM	1.31 µM	< 37 nM	0.239 µM	< 0.01 µM	1450 nM
C#COc1cccc(Nc2ncnc3ncc(NC(=O)CCl)cc23)c1	> 62.5 µM	> 62.5 µM	> 62.5 µM	> 62.5 µM	> 62.5 µM	> 62.5 µM	> 62.5 µM	> 62.5 µM	> 62.5 µM	> 62.5 µM	> 19800 nM	> 52.9 µM		50.5 µM	> 62.5 µM	> 51.2 µM	> 60100 nM	> 16.6 µM	> 62.5 µM	> 62500 nM
CC(=O)OC1CCC2(C)C(=CCC3C2CCC2(C)C(C(C)C(=O)O)CCC32)C1 (stereo unspecified)	> 100 µM	> 100 µM	> 100 µM	> 100 µM	> 100 µM	> 100 µM	> 100 µM	> 100 µM	> 100 µM	> 100 µM										
CC[C@H](C)n1cc(C)c2c(C(=O)NCc3c(C)cc(C)[nH]c3=O)cc(-c3ccc(N4CCNCC4)nc3)cc21	28 µM and 28.9 µM	31.9 µM and 29.3 µM	18.4 µM and 20.6 µM	22.5 µM and 14.3 µM	30.9 µM and 33.1 µM	29.2 µM and 18 µM	19.8 µM and 17.6 µM	24.9 µM and 21.8 µM	30.5 µM and 27.7 µM	30.2 µM and 23.4 µM	11400 nM and 11700 nM	16.2 µM and 14.8 µM	5190 nM and 6530 nM	9.56 µM and 4.52 µM	13.6 µM and 13.2 µM	15.8 µM and 6.13 µM	6120 nM and 3630 nM	10.4 µM and 6.88 µM	15.4 µM and 13.5 µM	14700 nM and 9460 nM
CC(=O)OC(C)(C)N=Nc1ccc(Br)cc1	36.2 µM	> 60.1 µM	> 100 µM	> 100 µM	> 100 µM	6.26 µM	> 91.5 µM	> 100 µM	> 100 µM	> 100 µM										
Cc1ccccc1N=Nc1c(O)[nH]c2ccccc12	> 100 µM	> 100 µM	> 100 µM	> 100 µM	> 100 µM	> 100 µM	> 100 µM	> 100 µM	> 100 µM	> 100 µM										
Oc1cc(O)c2c(=S)cc(-c3ccc(Cl)cc3)oc2c1	9.9 µM	22.9 µM	39.7 µM	14.8 µM	40.3 µM	5.04 µM	13.8 µM	11.4 µM	12.6 µM	14.5 µM	2820 nM	5.67 µM	19700 nM	3.22 µM	3.56 µM	1.89 µM	2230 nM	0.111 µM	3.38 µM	1700 nM
CC[C@@H](C(=O)[C@@H](C)[C@@H](O)[C@H](C)[C@@H]1O[C@@H]([C@@H](CC)C(=O)O)CC[C@@H]1C)[C@H]1OC2(C=C[C@@H](O)[C@]3(CC[C@@](C)([C@H]4CC[C@](O)(CC)[C@H](C)O4)O3)O2)[C@H](C)C[C@@H]1C (stereo partly specified)	4.48 µM	19.8 µM	19.7 µM	1.88 µM	> 50 µM	0.534 µM	> 24.2 µM	> 39.2 µM	2.97 µM	10.5 µM	117 nM	0.263 µM	231 nM	0.79 µM	0.311 µM	0.16 µM	1200 nM	0.154 µM	0.233 µM	105 nM
c1ccc(-c2nn(-c3ccccc3)[n+](-c3cccc4ccccc34)n2)cc1	> 100 µM	26.6 µM	15.1 µM	23.1 µM	> 100 µM	4.1 µM	14.8 µM	10.6 µM	17.9 µM	14.8 µM	472 nM	2.69 µM	918 nM	3.09 µM	1.77 µM	0.674 µM	1940 nM	0.335 µM	1.85 µM	1910 nM
O=C1/C(=C\c2coc3ccccc3c2=O)c2ccccc2N1c1c(Cl)cccc1Cl	3.95 µM	> 100 µM	> 100 µM	97.4 µM	> 100 µM	> 100 µM	37.4 µM	> 100 µM	35.3 µM	> 100 µM	1250 nM	4.22 µM	3050 nM	5.28 µM	9.05 µM	2.44 µM	1910 nM	3.21 µM	2.83 µM	5330 nM
C=C1CCC2C3(C)COC(c4ccc(SC)cc4)OC3CCC2(C)C1C/C=C1/C(=O)OCC1O (stereo unspecified)	15.1 µM	23.7 µM	7.02 µM	17.7 µM	17 µM	19.4 µM	21.7 µM	11.7 µM	20.9 µM	24.9 µM	2640 nM	8.14 µM	2420 nM	6.53 µM	5.17 µM	6.85 µM	10100 nM	3.04 µM	4.38 µM	11900 nM
Cc1cc(-c2nc(-c3ccc(OC(F)(F)F)cc3)no2)nn1Cc1ccnc(N2CCN(C3CC3)CC2)c1	> 58.3 µM	> 100 µM	> 56.9 µM	20.4 µM	> 72.6 µM	2.45 µM	> 100 µM	> 42.7 µM	> 52.6 µM	24.5 µM	582 nM	< 0.01 µM	5260 nM	2.69 µM	> 38.4 µM	< 0.01 µM	> 59600 nM			7050 nM
O=C1/C(=C/c2ccccc2)CCC/C1=C\c1ccccc1	36.5 µM and > 20.1 µM and 5.89 µM	13.6 µM and 26.5 µM	11.5 µM and 18.7 µM and 5.96 µM	12.9 µM and 19 µM and 7.88 µM	28.1 µM and > 100 µM	12 µM and 26.4 µM and 19.6 µM	13.2 µM and 51.2 µM and 52.1 µM	12.4 µM and 21 µM	10.9 µM and 24 µM	25.8 µM and 7.64 µM	2890 nM and 2230 nM	7.49 µM	2540 nM	2.96 µM	43.2 µM	6.75 µM and 6.37 µM	6220 nM	3.46 µM		2720 nM
CC(=O)OC[C@]12CC[C@@H]([C@@H](C)C(N)=O)[C@@H]1[C@H]1CC[C@@H]3[C@@]4(C)CC[C@H](OC(C)=O)C(C)(C)[C@@H]4CC[C@@]3(C)[C@]1(C)CC2	12.4 µM	29.8 µM	15.4 µM	31.6 µM	38.6 µM	13.1 µM	44.6 µM	12.4 µM	22.6 µM	26.1 µM	2630 nM	8.57 µM	3730 nM	7.38 µM	12.4 µM	3.8 µM	5590 nM	3.27 µM	8.17 µM	10400 nM
O=C1c2ccccc2-c2c1c1ccccc1c(=O)n2CCCN1CCN(CCCn2c3c(c4ccccc4c2=O)C(=O)c2ccccc2-3)CC1	> 100 µM	> 86.1 µM	> 100 µM	> 100 µM	> 100 µM	> 100 µM	> 84 µM	> 100 µM	> 100 µM	> 100 µM	> 52200 nM	12.6 µM	> 100000 nM	> 100 µM	> 100 µM	> 100 µM	> 47700 nM	> 100 µM	> 75.2 µM	> 100000 nM
O=C(c1cccs1)c1c(C(F)(F)F)n([O-])c2ccc(F)cc2[n+]1=O	0.485 µM	3.58 µM	2.47 µM	3 µM	6.71 µM	2.51 µM	2.82 µM	3.12 µM	2.6 µM	1.98 µM	188 nM	1.76 µM	868 nM	1.54 µM	1.67 µM	1.22 µM	1470 nM	0.454 µM	0.815 µM	800 nM
N#Cc1cccc(NC(=O)c2oc3ccccc3c2-c2cnn(-c3ccccc3)c2)c1	> 500 µM	> 500 µM	> 500 µM	> 500 µM	> 500 µM	> 500 µM	493 µM	> 500 µM	> 500 µM	> 500 µM	> 500000 nM	430 µM	> 500000 nM	> 500 µM	171 µM	> 500 µM	82000 nM	209 µM	167 µM	> 500000 nM
COc1cc2c3c(n(C)c(=O)c2cc1OC)-c1cc2c(cc1/C3=C\CCCBr)OCO2	> 100 µM	30.8 µM	> 100 µM	> 100 µM	> 57.4 µM	> 100 µM	12.8 µM	> 64.8 µM	> 51.9 µM	> 51.3 µM	29100 nM	9.16 µM	> 100000 nM	> 96.6 µM	14.4 µM	> 69.5 µM	398 nM	16.2 µM	> 20.5 µM	
C#CCNC(=O)CC[C@]1(C)[C@H]2CC[C@@H]3[C@@H]([C@@](C)(O)CCC=C(C)C)CC[C@@]3(C)[C@]2(C)CC[C@H]1C(=C)C	62.9 µM	> 100 µM	42.9 µM	> 100 µM	> 100 µM	> 100 µM	> 100 µM	> 100 µM	> 100 µM	> 100 µM	20100 nM	48.4 µM	18800 nM	30.9 µM	50.2 µM	38.8 µM	> 100000 nM	24.7 µM	29 µM	45800 nM
C=CCN(/C=C1\C(=O)O[C@H](COC)[C@@]2(C)C1=C(O)C(=O)C1=C2[C@H](OC(C)=O)C[C@]2(C)C(=O)CC[C@@H]12)CC=C	20 µM and 14.1 µM	4.82 µM and 9.89 µM	20 µM and > 100 µM	> 100 µM		20 µM and 11.6 µM		5.95 µM and 22.8 µM	20 µM and 3.68 µM	8.12 µM and 4.94 µM	7910 nM and 1420 nM	0.0935 µM and 0.205 µM	101 nM and 558 nM	2.98 µM	0.173 µM and 0.025 µM	3.22 µM and 2.18 µM	291 nM and 32.7 nM	0.186 µM and 0.257 µM		487 nM and 207 nM
COc1ccc(C2=C(c3cc(OC)c(OC)c(OC)c3)C(=O)CC2)cc1	7 µM	> 20.5 µM	15.3 µM	4.01 µM		6.24 µM	> 100 µM	> 100 µM	> 22.7 µM	18.2 µM	255 nM	0.0548 µM	84.5 nM	0.107 µM	0.0827 µM	0.123 µM	224 nM	0.0585 µM	0.919 µM	244 nM
C[C@H]1CC[C@@H]2[C@@H](C)[C@H]3[C@H](C[C@H]4[C@@H]5CC=C6C[C@@H](O)CC[C@]6(C)[C@H]5C[C@H](O)[C@]34C)N2C1	> 100 µM	> 100 µM	> 100 µM	> 100 µM	> 100 µM	> 100 µM	> 100 µM	> 100 µM	> 100 µM	> 100 µM										
COc1ccc(-c2nn(-c3cccc(NC(=O)Nc4cc(C(F)(F)F)cc(C(F)(F)F)c4)c3)cc2-c2ccncc2)cc1Cl	2.68 µM	3.36 µM	5.75 µM	2.51 µM	5.52 µM	1.7 µM	4.18 µM	5.98 µM	4.59 µM	9.18 µM	540 nM	1.01 µM	1290 nM	0.913 µM	1.17 µM	0.827 µM	813 nM	1.01 µM	1.35 µM	2020 nM
